Experimental data from US12275725B2, “Inhibitors of the notch transcriptional activation complex and methods for use of the same” (University of Miami, priority 2019, dated 2025).

Columns and labels:
[1] = GSH ethyl ester conjugation / parent remaining in human liver microsomes; assay type: in vitro ADME; conditions: for Percentage (%) Parent Remaining in HLM: reacted with GSH
[2] = system: OE33 cell line (esophageal adenocarcinoma); experiment: Colony assay, OE33; assay type: cell-based, human; conditions: OE33, repeat dose every 48 hours for 10 days
Protocol: Cells were plated into a 6 well plate at a density of 2000 cells/cm^2. Inhibitor treatment commenced 24 hours post seeding, and the media containing inhibitor was changed every 48 hours thereafter. […]

[3] = biological target: T1, Notch transcriptional activation complex (NTC) (Homo sapiens, UniProt P46531+Q06330); experiment: Notch complex assembly assay (NTC AlphaScreen assay); assay type: binding
T1 construct: made in house; host or cells: SF21 insect cells (baculovirus)
Protocol: Notch Complex Assembly Assay
All recombinant proteins were expressed using baculovirus expression vectors in SF21 cells and purified. Unless otherwise stated, all assays contained 125 fmol of double stranded oligonucleotide, CSL, Notch1 and MAML1 proteins. Reactions were carried out in Tris-buffered saline with 0.1% Tween (“TBS-T”) buffer containing 0.2% bovine serum albumin (“BSA”) and 100 μg/mL salmon sperm DNA. Briefly, the Notch complex was assembled on a biotinylated double stranded (“DS”) oligonucleotide harboring one CSL binding site (5′-[…]-3′). Complex assembly was quantitated using ALPHASCREEN technology (Perkin Elmer). Proteins in the complexes were detected using specific antibodies to either MAML1 (Cell signaling, D3K7B), Notch1 (Abcam, 52627) or CSL (anti-His, Abcam 18184). Streptavidin conjugated […] beads (Perkin Elmer, 6760002) were used to bind the DS oligonucleotide, and Protein-A conjugated […] beads (Perkin Elmer, 6760137) were used to detect antibody-coated proteins. For screening compounds, Notch transcriptional activation complex (“NTC”) components were added to wells that already contained the inhibitor to be assayed and allowed to incubate for 30 minutes. The ALPHASCREEN plate (Perkin Elmer, 6008350) was then read on an Envision Plate reader (Perkin Elmer) as specified by the manufacturer.

[4] = system: OE33 cell line (esophageal adenocarcinoma); experiment: Tumor sphere viability, MTT assay, OE33; assay type: cell-based, human; conditions: OE33, 72 hours of treatment
Protocol: FIG. 4A depicts a graph showing the ability of NADi-351 to inhibit the tumor sphere viability of the OE33 cell line (esophageal adenocarcinoma) after 72 hours of treatment using the Methylthiazolyldiphenyl-tetrazolium bromide (“MTT”) assay.
The compounds and salts disclosed herein can inhibit the viability of tumor spheres and decrease Notch target gene expression.
OE33 cells, human esophageal adenocarcinoma cell lines, were obtained from the European Collection of Cell Culture. SUM-149 and SUM-159, breast cancer cell lines, were obtained from Dr. Joyce Slingerland at the University of Miami School of Medicine. The following cell lines were obtained directly from the ATCC: 786-0, a human renal cell adenocarcinoma cell line; HT-1080, a human fibrosarcoma cell line; MCF-7, a mammary gland adenocarcinoma; T47D, a human mammary ductal carcinoma cell line; and H-23 a non-small cell lung adenocarcinoma cell line. All cell lines were propagated in growth media as specified.

T1 sequence (P46531 1754-2555 limits assumed): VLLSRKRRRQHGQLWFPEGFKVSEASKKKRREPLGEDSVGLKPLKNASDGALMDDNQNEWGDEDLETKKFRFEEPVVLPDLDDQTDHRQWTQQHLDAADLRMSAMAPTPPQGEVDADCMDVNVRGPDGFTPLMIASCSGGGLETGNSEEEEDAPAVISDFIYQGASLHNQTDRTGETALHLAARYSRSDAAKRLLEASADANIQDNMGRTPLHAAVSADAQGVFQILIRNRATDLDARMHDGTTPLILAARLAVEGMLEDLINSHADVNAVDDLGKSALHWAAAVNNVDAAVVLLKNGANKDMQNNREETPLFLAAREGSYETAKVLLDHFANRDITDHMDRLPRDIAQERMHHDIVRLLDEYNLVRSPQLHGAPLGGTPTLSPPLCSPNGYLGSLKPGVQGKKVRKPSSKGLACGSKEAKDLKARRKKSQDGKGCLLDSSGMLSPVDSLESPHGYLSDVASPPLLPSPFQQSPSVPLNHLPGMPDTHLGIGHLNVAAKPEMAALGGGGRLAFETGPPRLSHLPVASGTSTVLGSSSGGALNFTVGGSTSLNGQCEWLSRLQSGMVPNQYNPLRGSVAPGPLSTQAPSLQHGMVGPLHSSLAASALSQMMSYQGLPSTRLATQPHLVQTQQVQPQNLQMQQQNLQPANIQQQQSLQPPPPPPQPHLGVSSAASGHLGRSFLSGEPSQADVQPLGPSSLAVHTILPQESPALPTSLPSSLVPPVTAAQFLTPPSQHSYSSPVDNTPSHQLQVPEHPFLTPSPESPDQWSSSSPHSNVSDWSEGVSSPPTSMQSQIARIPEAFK
T1 sequence (Q06330 whole entry): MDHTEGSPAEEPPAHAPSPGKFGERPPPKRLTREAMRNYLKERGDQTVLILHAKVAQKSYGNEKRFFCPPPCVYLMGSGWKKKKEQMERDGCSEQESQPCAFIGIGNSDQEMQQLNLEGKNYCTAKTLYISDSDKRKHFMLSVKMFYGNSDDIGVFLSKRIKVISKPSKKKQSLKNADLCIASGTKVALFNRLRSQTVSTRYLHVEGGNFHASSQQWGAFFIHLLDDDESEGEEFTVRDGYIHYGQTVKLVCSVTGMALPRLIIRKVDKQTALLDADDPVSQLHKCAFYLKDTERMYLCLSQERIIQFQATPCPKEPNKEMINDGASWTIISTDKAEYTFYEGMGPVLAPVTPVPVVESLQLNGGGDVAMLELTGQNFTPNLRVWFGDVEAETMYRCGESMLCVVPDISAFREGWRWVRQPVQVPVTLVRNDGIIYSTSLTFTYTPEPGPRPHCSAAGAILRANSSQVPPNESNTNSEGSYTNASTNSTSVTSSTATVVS

- Percentage (%) Parent Remaining in HLM ([1]; incubation time 0 min): 100%
- Percentage (%) Parent Remaining in HLM ([1]; incubation time 60 min): 86%
- IC50 ([3]; Table E, NTC AlphaScreen assay, read-out: *IC50): 2.4 nM
- increase in potency over NADi-260 ([3]; methylated at the alkene vs NADi-260): 10 fold
SMILES: COc1cc(/C(C)=C2\SC(=S)N(CC(=O)N(C)C)C2=O)cc(F)c1OCc1nnc[nH]1 [NADi-351, (Z)-2-(5-(1-(4-((1H-1,2,4-triazol-3-yl)methoxy)-3-fluoro-5-methoxyphenyl)ethylidene)-4-oxo-2-thioxothiazolidin-3-yl)-N,N-dimethylacetamide]
- GSH ethyl ester conjugation in HLM ([1]; within 60 minutes of incubation): increased stability toward GSH ethyl ester conjugation
- colony formation [2]: decreased colony formation
- decrease of tumor sphere viability [4]: about 75%
